Experimental findings from paper PMC12040169 (PLOS Biology, 2025) are described below.

The data set is described as follows: in vitro. Particulars: human, hela cells, % viability.

For orientation: viability means a read-out of living cells in per cent, often relative to untreated cells. `COc1cc2cc3c(N)c(C(=O)NCc4cccs4)sc3nc2cc1OC` [CBK120215]: the viability at 28.5 h, 10 µM amounted to 92%.

As for `COc1cccc(-c2coc3cc4oc(=O)c(CC(=O)O)c(C)c4cc23)c1` [CBK269520], the viability at 28.5 h, 10 µM stood at 86.6%. The same measure, in the same setting: the result for `CCn1c(SCC(=O)N2CCC(C(N)=O)(N3CCCCC3)CC2)nnc1-c1ccccc1` [CBK266135] reads 95.2%; that for `O=C(CSc1nnc(Nc2ccccc2)n1-c1ccccc1)Nc1ccc2c(c1)COC2=O` [CBK268298], 105%; that for `O=C(CCn1c(C(F)F)cc2cccnc21)NCc1ccc(F)cc1` [CBK285067], 102%. In the case of `O=C1NC2(CCSCC2)Oc2ccccc21` [CBK007488], the viability at 28.5 h, 10 µM was 79.3%. Still for that read-out and setting: the result for `COc1ccccc1Cc1cccc(C2CCCN2C(=O)CCc2ccccc2)n1` (centres unmarked) [CBK286229] reads 108%; that for `O=S(=O)(Nc1cccc2nsnc12)c1cccs1` [CBK017018], 75.6%; that for `CCc1nc2ccc(C(=O)Nc3ccc(NC(C)=O)cc3)cn2c1N(CC)Cc1ccc(OC)c(OC)c1` [CBK146994], 97.8%. Same read-out and setting: the same measure for `O=C1NCC2(CCN(Cc3ccccc3)CC2)Oc2ccccc21` [CBK285323]: 91.8%.

For the compound `c1cc(CCCOc2cc(N3CCCC3)ncn2)ccn1` [CBK115897], the viability at 28.5 h, 10 µM was 84.4%. Same read-out and setting: the result for `Cc1ccc(OCC(=O)Nc2ccc3c(c2)nc2n3CCOC2)cc1` [CBK288005] reads 102%; that for `CC(C)(C)c1ccc(C(=O)NNC(=O)C(=O)Nc2ccccc2)cc1` [CBK261701], 83.1%; that for `O=C(CN1CCCC1)Nc1sc2c(c1C(=O)Nc1ccc(Br)cc1)CCC2` [CBK265060], 94.8%. The same measure, in the same setting: the result for `COc1ccc(C(=O)N2C[C@H]3Cc4c(n[nH]c4C(F)F)[C@H]3C2)s1` [CBK283425] reads 95.4%; that for `CCc1cccc(CN2CCC(CNC(=O)Nc3ccc(Cl)cc3)CC2)c1` [CBK269151], 93.4%; that for `COc1ccc(S(=O)(=O)N2CCN(CCN3C(=O)c4cccc5cccc(c45)C3=O)CC2)cc1[N+](=O)[O-]` [CBK263301], 102%.

`N#CCCCN1CCN(c2nccnc2OCCN2C(=O)CCC2=O)CC1` [CBK084299]: the viability at 28.5 h, 10 µM stood at 102%. On the same count and under the same terms, the same measure for `Cc1occc1-c1nnc(SCC(=O)Nc2cccc3nsnc23)o1` [CBK268979]: 89.5%; for `O=C(O)CCC(=O)Nc1nc(-c2ccccc2)cs1` [CBK286947]: 109%. Regarding `CCOC(=O)Nc1ccc(S(=O)(=O)Nn2cnnc2)cc1` [CBK262138], the viability at 28.5 h, 10 µM worked out at 105%. Same read-out and setting: the same measure for `O=C(O)c1ccc(NC(=O)c2cc(-n3cnnc3)ccc2Cl)cc1` [CBK286613]: 111%; for `CC(C)[C@H](CO)n1c(=O)[nH]c2ncc(-c3cccc4ccccc34)nc21` [CBK064985]: 104%. Still for that read-out and setting: the same measure for `COc1cc(NC(=O)N2CCN(CCc3ccccc3)CC2)cc(OC)c1OC` [CBK158933]: 100%; for `CC(=O)Nc1ccc(S(=O)(=O)N(c2ccc(C(C)(C)C)cc2)C2CCNCC2)cc1` [CBK165062T]: 90.4%. The same measure, in the same setting: the same measure for `COC(=O)c1ccc(NC(=O)N(Cc2cnn(C)c2)CC(C)C)cc1Cl` [CBK304387]: 93.1%; for `CCOC(=O)C(C)n1ncc2c3sc(C)cc3n(C)c2c1=O` (centres unmarked) [CBK284157]: 85.9%; for `Cc1cc(-c2cn3cc(C(=O)N4CCNCC4)nc3c(=O)n2C)c(C)o1` [CBK307325]: 108%. As for `OCCCNc1nccnc1-c1ccccc1Cl` [CBK038092], the viability at 28.5 h, 10 µM is 81.6%. On the same count and under the same terms, the same measure for `CCCCNCCOC1CCC[C@@H]1Cl` (some centres unmarked) [CBK009839]: 97.7%; for `COC(=O)c1ccc(Cl)cc1N(Cc1c(F)cccc1Cl)S(C)(=O)=O` [CBK021351]: 85.3%; for `Cn1cc(C(=O)N2CCc3nc(-c4ccccc4F)sc3C2)cn1` [CBK281914]: 89%. The same measure, in the same setting: the result for `c1ccc(CCCN2CCN(Cc3cccc4ccccc34)CC2)cc1` [CBK264237] reads 103%; that for `O=C(NC(=S)Nc1ccc2oc(-c3cccc4ccccc34)nc2c1)c1ccco1` [CBK263691], 95.5%; that for `O=C(NCc1ccc(F)cc1)c1cc(Br)cnc1NCc1cccnc1` [CBK076405], 104%. The same measure, in the same setting: the same measure for `CC(=O)Nc1ccc(NC(=O)NCC2CCCO2)c(C(F)(F)F)c1` (centres unmarked) [CBK304150]: 92.8%; for `CC1(C)CC(=O)c2sc(NC(=O)c3cccc(N4C(=O)CCC4=O)c3)nc2C1` [CBK287565]: 111%.

Consider `CC(CC(=O)N1CCOC(c2nc(C(C)(C)C)n[nH]2)C1)n1cccc1` (centres unmarked) [CBK305214], for which the viability at 28.5 h, 10 µM was found to be 82.8%. Same read-out and setting: the result for `O=S(=O)(c1ccc(Br)s1)N1CCC(Cc2ccccc2)CC1` [CBK043580] reads 89.7%. Same read-out and setting: the same measure for `CCCn1cc(CN2CC3C[C@@H](O)CN3C[C@@H]2C)c2ccccc21` (some centres unmarked) [CBK285466]: 104%; for `O/N=C(\Cn1cncn1)c1ccc(Cl)cc1Cl` [CBK261085]: 93.5%. With `CC(=O)N1CCC2(CC1)OCc1cc(-c3cnc4ccccc4c3)ccc1O2` [CBK060976], the viability at 28.5 h, 10 µM (bulk resorufin, single well) came to 93.8%. `Cc1nn(-c2ccc(N3CCNCC3)nn2)c(=O)c2ccccc12` [CBK270067]: the viability at 28.5 h, 10 µM came to 88.1%.

With `CCOc1ccc(C(=O)Nc2nonc2CC)cc1` [CBK287287], the viability at 28.5 h, 10 µM came out at 94.3%. Same read-out and setting: the result for `O=C(CSc1nnc(-c2cccnc2)n1-c1ccccc1)Nc1cc(C(F)(F)F)ccc1Cl` [CBK267540] reads 90.8%. On the same count and under the same terms, the same measure for `CCNC(=O)CN1CCN(c2nc(C(F)(F)F)ccc2C#N)CC1` [CBK305515]: 86.4%. On the same count and under the same terms, the result for `CN(C(=O)NC1CCN(Cc2cccc(O)c2)CC1)C1CCS(=O)(=O)C1` (centres unmarked) [CBK306538] reads 83.5%; that for `COc1ccc2cc(C(=O)NCCn3ccnc3C)n(C)c2c1` [CBK282544], 94.1%; that for `Cc1noc(C)c1CC(=O)N1CCc2[nH]c3ccccc3c2C1` [CBK281848], 97.8%.

For `COc1ccccc1N1C(=O)CC(SC(=N)N/N=C(\C)c2ccc(O)cc2)C1=O` (centres unmarked) [CBK262766], the viability at 28.5 h, 10 µM came out at 100%. On the same count and under the same terms, the same measure for `CN(C)CCNC(=O)c1cccc(Oc2ccccc2)c1` [CBK270310]: 83.1%; for `Cc1ccc(S(=O)(=O)Nc2ccc3[nH]ccc3c2)cc1` [CBK153519]: 92.5%.

On to `O=C(Nc1ncc(Cc2ccc(F)cc2)s1)c1csc2c1CCCC2` [CBK300489], for which the viability at 28.5 h, 10 µM stood at 90.2%. Same read-out and setting: the same measure for `Cc1ccc2[nH]c(Cc3ccc(NC(=O)CCC4C(=O)Nc5ccccc54)cc3)nc2c1` (centres unmarked) [CBK285824]: 91%; for `NC(=O)c1ccccc1NC(=O)c1ccc(C(=O)Nc2ccccc2C(N)=O)cc1` [CBK261167]: 106%; for `Cc1ncsc1C(=O)N1CCCCC1c1nc2ccccc2[nH]1` (centres unmarked) [CBK283531]: 95.9%. Regarding `Cc1nn(C(C)CC(=O)O)c(C)c1Br` (centres unmarked) [CBK269138], the viability at 28.5 h, 10 µM was 91.7%.

With `CC(=O)c1c(-c2cccc3ccccc23)nc2n(CCN3CCCCC3)c3ccccc3n12` [CBK278243C], the viability at 28.5 h, 10 µM worked out at 103%.

On to `O=C1CC2(CCN(C(=O)N3CCCC3)CC2)Oc2ccc(F)cc21` [CBK283597], for which the viability at 28.5 h, 10 µM amounted to 84.9%. Still for that read-out and setting: the same measure for `Cc1nc2ccccn2c1CN1CCC(N2CCCC2)CC1` [CBK281730]: 108%; for `CN1CCC[C@H]1C(=O)N1CCC(Cn2cncn2)(C2CCCCC2)CC1` [CBK136818]: 101%. On the same count and under the same terms, the result for `Cc1cccc(C)c1N1CCN(CC(O)COc2ccc3c(C)cc(=O)oc3c2)CC1` (centres unmarked) [CBK270084] reads 91.2%; that for `Cn1cc(C(NC(=O)c2cn3ccsc3n2)C2CC(O)C2)cn1` (centres unmarked) [CBK307428], 110%. The same measure, in the same setting: the same measure for `Cc1cccc(CC(=O)N2CCCC2c2ccnc3cc(C)nn23)c1` (centres unmarked) [CBK283472]: 105%; for `Cc1nc(C)n(CC2CN(Cc3cn4ccccc4n3)CCO2)n1` (centres unmarked) [CBK303999]: 97.1%.

With `COC(=O)c1ccccc1N1C(=O)c2cccc([N+](=O)[O-])c2C1=O` [CBK115382], the viability at 28.5 h, 10 µM worked out at 95.7%. Turning to `CC(=O)N1CCc2cc(-c3cc4cc(C)ccn4c3)ccc21` [CBK285228], the viability at 28.5 h, 10 µM came to 75.2%.

With `COc1ccc(C(=O)N2CC[C@H]3NC(=O)N(c4ccccc4)C(=O)[C@H]32)cc1` [CBK289281], the viability at 28.5 h, 10 µM was 93.1%. Take `O=C(NCc1ccc(F)cc1)c1ccc(Cn2ccnc2)cc1` [CBK297719]: the viability at 28.5 h, 10 µM was determined as 96.3%.

Consider `Cc1ccc(S(=O)(=O)Nc2ccccc2-c2nc3ccccc3c(=O)o2)cc1` [CBK087613], for which the viability at 28.5 h, 10 µM amounted to 94.5%. Same read-out and setting: the same measure for `C=CCSc1nc(-c2ccc(OCCC)cc2)n[nH]1` [CBK267323]: 100%. On the same count and under the same terms, the result for `C=C(C)Cn1c(-c2ccccc2C)nnc1S(=O)(=O)CC(C)C` [CBK200074] reads 80%; that for `CCc1cnccc1C(=O)N1CCC(NC(=O)c2cnn(C)c2)CC1` [CBK305388], 105%; that for `CC(Sc1nc2ccc(F)cc2c(=O)[nH]1)C(=O)N1CCOCC1` (centres unmarked) [CBK305958], 108%. Same read-out and setting: the result for `O=C(NCC1CCCO1)c1ccc(CNS(=O)(=O)c2cccc(Cl)c2)cc1` (centres unmarked) [CBK267219] reads 88.6%; that for `CN1CCN(C(c2ccccc2)C(O)C(=O)c2c[nH]c3ccccc23)CC1` (centres unmarked) [CBK267823], 103%; that for `CC(=O)c1ccc(NC(=O)CSc2ncccc2C(=O)O)cc1` [CBK299798], 94.4%. Consider `COc1cccc(CN2CCN(CCc3ccccc3)CC2)c1` [CBK126454], for which the viability at 28.5 h, 10 µM amounted to 90.5%. In the case of `Cc1ccccc1CC(=O)N1CCCC1c1n[nH]cc1-c1ccncc1` (centres unmarked) [CBK283431], the viability at 28.5 h, 10 µM stood at 87.7%.

Consider `CCCc1n[nH]c(-c2c(F)cccc2F)c1C(=O)OCC` [CBK113546], for which the viability at 28.5 h, 10 µM stood at 92.7%.
